Experimental data from patent EP4610269A1, “UROKINASE PLASMINOGEN ACTIVATOR SURFACE RECEPTOR (UPAR) LIGANDS FOR DIAGNOSTIC OR THERAPEUTIC USE” (3B Pharmaceuticals GmbH, priority 2024, dated 2025).
Where a SMILES comes first, the peptide text is derived from it. Bridges are numbered along the chain shown (N, C = ends). [ ]: non-standard residue; d: D form. The star is where a group is joined. X3 = NC(=O)[C@H](CCCCNC(=O)CN1CCN(CC(=O)O)CCN(CC(=O)O)CCN(CC(=O)O)CC1)NC(=O)CCC(=O)NCCCOCCOCCOCCCN*; DOTA = O=C(O)CN1CCN(CC(=O)O)CCN(CC(=O)*)CCN(CC(=O)O)CC1; Phe(4-guanidino) = N=C(N)Nc1ccc(C[C@H](N)C(=O)O)cc1; Lys(Me3) = C[N+](C)(C)CCCC[C@H](N)C(=O)O; 2Nal = N[C@@H](Cc1ccc2ccccc2c1)C(=O)O; Dopa = N[C@@H](Cc1ccc(O)c(O)c1)C(=O)O; Hyp = O=C(O)[C@@H]1C[C@@H](O)CN1; Pentanoyl(4-Me) = CC(C)CCC(=O)*; Cit = NC(=O)NCCC[C@H](N)C(=O)O; Butoxycarbonyl = CCCCOC(=O)*; Api = NC1(C(=O)O)CCNCC1; Nva = CCC[C@H](N)C(=O)O; Hexanoyl = CCCCCC(=O)*; Pentanoyl = CCCCC(=O)*

How the values were obtained:
[1] = biological target: T1, uPAR-expressing HEC-265 human endometrial adenocarcinoma cells (Homo sapiens, UniProt Q03405); assay: Competitive FACS binding assay; details: pIC50 category of FACS binding
T1 construct: Cell surface uPAR-expressing HEC-265 human endometrial adenocarcinoma cells; host or cells: HEC-265
Description: In order to determine binding of compounds according to the present invention to uPAR-expressing cells, a competitive FACS binding assay was established.
Cell surface uPAR-expressing HEC-265 human endometrial adenocarcinoma cells (Japanese Collection of Research Bioresources, #JCRB1142) were cultured in MEM Eagle with stable glutamine (Pan Biotech, #P04-09500) including 15% fetal bovine serum (Pan Biotech, #P30-3306) and 100 U/ml penicillin and 100 µg/mL streptomycin (Pan Biotech, #P06-07100). Cells were detached with Cell Dissociation Buffer (Thermo Scientific, #13151014) and washed in FACS buffer (PBS (Pan Biotech, #P04-36500) including 1% BSA (SeraCare, #AP-4510-80). Cells were diluted in FACS buffer to a final concentration of 500.000 cells per ml and 200 µl of the cell suspension are transferred to a u-shaped non-binding 96-well plate (Greiner Bio-One, #650901).
For IC50 determination, cells were incubated with 10 nM Bio--Ttds--Ttds--Ttds--Ttds-D-Cha-FsrYLWS-NH2) in the presence of increasing concentrations of non-labeled test compounds at 4°C for 1 hour. Cells were washed twice in FACS buffer. An additional incubation step with 1 µg/mL APC-Streptavidin (Miltenyi; #130-106-791) in 50 µL FACS buffer for 30 minutes on ice was performed followed by two washes with FACS buffer. Cells were resuspended in 200 µl FACS buffer and analyzed in an Attune NxT flow cytometer. Median fluorescence intensities (APC channel) were calculated by Attune NxT software and plotted against peptide concentrations. Four parameter logistic (4PL) curve fitting and pIC50 calculations were performed using ActivityBase software.

human uPAR (uPAR-Fc) = biological target: T2, human uPAR (uPAR-Fc) (Homo sapiens, UniProt Q03405); assay: Surface plasmon resonance (SPR) assay, single cycle kinetics; format: binding; details: pKD category for uPAR SPR activity assay; uPAR-Fc on Protein A-Chip, 25°C; read-out: pKD CAT (converted)
T2 construct: comprising amino acids Leu23-Arg303 according to UniProt entry Q03405.1; purchased R&D Systems 10378-UK-100
Description: Surface plasmon resonance (SPR) is an optical technique used to measure molecular interactions in real time. SPR occur when plane-polarized light hits a metal film under total internal reflection conditions. SPR signal is directly dependent on the refractive index of the medium on the sensor chip. In an SPR experiment, one molecule (i.e. uPAR) is immobilized on a sensor chip and binding to a second molecule (i.e. test compounds) is measured under flow. The binding of the compound on the surface changes the refractive index. In responses the reflection angle changes as compounds bind and dissociate on the immobilized protein on the surface. This response is measured in resonance units (RU). The RUs are proportional to the number of molecules bound to the surface. […] Kinetic binding constants and equilibrium binding constants can be derived from the sensorgrams.
Surface plasmon resonance (SPR) studies were performed using a Biacore™ T200 or S200 SPR system (Cytiva, formerly GE Life Sciences) to assess binding of compounds to recombinant uPAR protein.
In this example recombinant protein comprising the extracellular domains of human uPAR (uPAR-Fc, R&D Systems, CAT 10378-UK-100, comprising amino acids Leu23-Arg303 according to UniProt entry Q03405.1 and Fc region of human IgG1 at the C-terminus) was immobilized on a Protein A-Chip (Cytiva, CAT 29127555) according to the supplier's instructions. uPAR-Fc was diluted in Running Buffer (10 mM HEPES, 150 mM NaCl, 50 µM EDTA, 0.1% DMSO, 0.05% Tween-20, pH 7.4) to a final concentration of 100 nM and then flushed over the Protein A-Chip to immobilized ~2000 RUs.
Stock solutions of test compounds were prepared by dissolving each compound in DMSO. DMSO stock solution were diluted 1: 1000 in Running Buffer without DMSO. Further sequential dilutions were made with Running Buffer containing 0.1% DMSO. SPR binding analyses were performed in Single Cycle Kinetic (SCK) mode at 25°C. Flow cell without immobilized uPAR-Fc served as reference flow cell. The chip was regenerated with 10 mM Glycine, pH 1,5 to remove the uPAR-Fc from the chip surface after each SCK run. After every three SCK measurements, a blank run with Running Buffer instead of test compound was included to correct for baseline drifts (double reference substraction method). Table 11: SPR protocol steps for SCK with uPAR-Fc immobilized on a Protein A-Chip.
For each test compound, SPR raw data sensorgrams were recorded using the Biacore™ T200 or S200 control software. Sensorgrams were processed and analyzed with the Biacore™ Insight Evaluation software. […] The reference subtracted sensorgram for each test compound was further corrected for baseline drift by subtracting the sensorgram of a reference subtracted blank run (Running Buffer only). The dissociation constant (KD) was calculated from the double reference subtracted sensorgrams using the 1:1 Langmuir binding model. The pKD value (negative decadic logarithm of dissociation constant) was calculated using Microsoft Excel.

T2 sequence (Q03405 23-303): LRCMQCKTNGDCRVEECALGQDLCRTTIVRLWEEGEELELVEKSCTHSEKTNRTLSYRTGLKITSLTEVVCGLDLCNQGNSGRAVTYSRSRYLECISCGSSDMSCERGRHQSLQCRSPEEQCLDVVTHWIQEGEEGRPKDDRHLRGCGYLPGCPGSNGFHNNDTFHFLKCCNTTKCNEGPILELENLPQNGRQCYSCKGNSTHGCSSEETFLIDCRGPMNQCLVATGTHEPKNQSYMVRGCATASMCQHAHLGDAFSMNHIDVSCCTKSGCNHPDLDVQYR
T1 sequence (Q03405 23-335): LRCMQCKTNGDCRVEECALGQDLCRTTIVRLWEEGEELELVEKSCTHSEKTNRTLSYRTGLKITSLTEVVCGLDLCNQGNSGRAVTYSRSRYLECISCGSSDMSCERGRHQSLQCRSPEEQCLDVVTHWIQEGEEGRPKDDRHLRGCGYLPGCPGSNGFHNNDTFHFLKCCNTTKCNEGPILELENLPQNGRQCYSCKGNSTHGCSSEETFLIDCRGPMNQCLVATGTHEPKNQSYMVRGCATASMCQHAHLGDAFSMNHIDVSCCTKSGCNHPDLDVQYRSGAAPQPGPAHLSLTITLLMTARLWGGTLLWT

Compound	IC50 [1]	Kd (human uPAR (uPAR-Fc))
CC[C@H](C)[C@@H]1NC(=O)[C@@H](C)NC(=O)[C@@H]2CCCN2C(=O)[C@H](Cc2ccccc2)NC(=O)[C@H](Cc2ccc(O)c(O)c2)NC(=O)[C@H](CCC(N)=O)NC(=O)[C@H](CCCNC(N)=O)NC(=O)[C@@H](NC(=O)CCC(C)C)CSSC[C@@H](C(N)=O)NC(=O)[C@H](CC(C)C)NC1=O [UPAR-144, iHex-[Cys-Cit-Gln-Dopa-Phe-Pro-ala-Ile-Leu-Cys]-NH2] ({Pentanoyl(4-Me)}-C[Cit]Q[Dopa]FP[dA]ILC-NH2; disulfide 1-10)	≤ 10 nM	< 1.58 nM
CC[C@H](C)[C@@H]1NC(=O)[C@H](CCCCNC(=O)CN2CCN(CC(=O)O)CCN(CC(=O)O)CCN(CC(=O)O)CC2)NC(=O)[C@@H]2CCCN2C(=O)[C@H](Cc2ccccc2)NC(=O)[C@H](Cc2ccc(O)cc2)NC(=O)[C@H](CCC(N)=O)NC(=O)[C@H](CCCNC(N)=O)NC(=O)[C@@H](NC(=O)CCC(C)C)CSSC[C@@H](C(N)=O)NC(=O)[C@H](CC(C)C)NC1=O [UPAR-145, iHex-[Cys-Cit-Gln-Tyr-Phe-Pro-Lys(DOTA)-Ile-Leu-Cys]-NH2] ({Pentanoyl(4-Me)}-C[Cit]QYFPK(DOTA)ILC-NH2; disulfide 1-10)	≤ 10 nM	< 1.58 nM
CCCCC(=O)N[C@H]1CSSC[C@@H](C(=O)NCC)NC(=O)[C@H](CCC)NC(=O)[C@H]([C@@H](C)CC)NC(=O)[C@@H]2C[C@@H](O)CN2C(=O)[C@@H]2CCCN2C(=O)[C@H](Cc2ccccc2)NC(=O)[C@H](Cc2ccc(O)cc2)NC(=O)[C@H](CCC(N)=O)NC(=O)[C@H](CCCNC(N)=O)NC1=O [UPAR-146, Pent-[Cys-Cit-Gln-Tyr-Phe-Pro-Hyp-Ile-Nva-Cys]-NHEt] (Pentanoyl-C[Cit]QYFP[Hyp]I[Nva]C-NHEt; disulfide 1-10)	12.6 to 31.6 nM	1.58 to 10 nM
CC[C@H](C)[C@@H]1NC(=O)[C@@H](C)NC(=O)[C@@H]2CCCN2C(=O)[C@H](Cc2ccc3ccccc3c2)NC(=O)[C@H](Cc2ccc(O)cc2)NC(=O)[C@H](CCC(N)=O)NC(=O)[C@H](CCCNC(N)=O)NC(=O)[C@@H](NC(=O)CCC(C)C)CSSC[C@@H](C(N)=O)NC(=O)[C@H](CC(C)C)NC1=O [UPAR-147, iHex-[Cys-Cit-Gln-Tyr-2Ni-Pro-ala-Ile-Leu-Cys]-NH2] ({Pentanoyl(4-Me)}-C[Cit]QY[2Nal]P[dA]ILC-NH2; disulfide 1-10)	12.6 to 31.6 nM	10 to 100 nM
CCCCC(=O)N[C@H]1CSSC[C@@H](C(N)=O)NC(=O)[C@H](CCC)NC(=O)[C@H]([C@@H](C)CC)NC(=O)[C@@H]2C[C@@H](O)CN2C(=O)[C@@H]2CCCN2C(=O)[C@H](Cc2ccccc2)NC(=O)[C@H](Cc2ccc(NC(=N)N)cc2)NC(=O)[C@H](CCCCNC(=O)CN2CCN(CC(=O)O)CCN(CC(=O)O)CCN(CC(=O)O)CC2)NC(=O)[C@H](CCCNC(N)=O)NC1=O [UPAR-149, Pent-[Cys-Cit-Lys(DOTA)-Guf-Phe-Pro-Hyp-Ile-Nva-Cys]-NH2] (Pentanoyl-C[Cit]K(DOTA)[Phe(4-guanidino)]FP[Hyp]I[Nva]C-NH2; disulfide 1-10)	≤ 10 nM	< 1.58 nM
CCCCCC(=O)N[C@@H](CC(=O)O)C(=O)N[C@@H](CC(C)C)C(=O)N[C@H]1CSSC[C@@H](C(=O)NCCCOCCOCCOCCCNC(=O)CCC(=O)N[C@@H](CCCCNC(=O)CN2CCN(CC(=O)O)CCN(CC(=O)O)CCN(CC(=O)O)CC2)C(N)=O)NC(=O)[C@H](CC(C)C)NC(=O)[C@H]([C@@H](C)CC)NC(=O)[C@H](C)NC(=O)[C@@H]2CCCN2C(=O)[C@H](Cc2ccccc2)NC(=O)[C@H](Cc2ccc(O)cc2)NC(=O)[C@H](CCSC)NC(=O)[C@H](CCCNC(=N)N)NC1=O [UPAR-150, Hex-Asp-Leu-[Cys-Arg-Met-Tyr-Phe-Pro-Ala-Ile-Leu-Cys]-Ttds-Lys(DOTA)-NH2] (Hexanoyl-DLCRMYFPAILC-X3; disulfide 3-12)	39.8 to 100 nM	1.58 to 10 nM
CC[C@H](C)[C@@H]1NC(=O)C2(CCN(C(=O)CN3CCN(CC(=O)O)CCN(CC(=O)O)CCN(CC(=O)O)CC3)CC2)NC(=O)[C@@H]2CCCN2C(=O)[C@H](Cc2ccccc2)NC(=O)[C@H](Cc2ccc(O)cc2)NC(=O)[C@H](CCC(N)=O)NC(=O)[C@H](CCCNC(=N)N)NC(=O)[C@@H](NC(=O)CCC(C)C)CSSC[C@@H](C(N)=O)NC(=O)[C@H](CC(C)C)NC1=O [UPAR-152, iHex-[Cys-Arg-Gln-Tyr-Phe-Pro-Apc(DOTA)-Ile-Leu-Cys]-NH2] ({Pentanoyl(4-Me)}-CRQYFP[Api](DOTA)ILC-NH2; disulfide 1-10)	≤ 10 nM	< 1.58 nM
CCCCC(=O)N[C@H]1CSSC[C@@H](C(N)=O)NC(=O)[C@H](CCC)NC(=O)[C@H]([C@@H](C)CC)NC(=O)[C@@H]2C[C@@H](O)CN2C(=O)[C@@H]2CCCN2C(=O)[C@H](Cc2ccccc2)NC(=O)[C@H](Cc2ccc(O)cc2)NC(=O)[C@H](CCCCNC(=O)CN2CCN(CC(=O)O)CCN(CC(=O)O)CCN(CC(=O)O)CC2)NC(=O)[C@H](CCCC[N+](C)(C)C)NC1=O [UPAR-153, Pent-[Cys-KMe3-Lys(DOTA)-Tyr-Phe-Pro-Hyp-Ile-Nva-Cys]-NH2] (Pentanoyl-C[Lys(Me3)]K(DOTA)YFP[Hyp]I[Nva]C-NH2; disulfide 1-10)	≤ 10 nM	< 1.58 nM
CCCCC(=O)N[C@H]1CSSC[C@@H](C(N)=O)NC(=O)[C@H](CCC)NC(=O)[C@H]([C@@H](C)CC)NC(=O)[C@H](CO)NC(=O)[C@@H]2CCCN2C(=O)[C@H](Cc2ccccc2)NC(=O)[C@H](Cc2ccc(O)cc2)NC(=O)[C@H](CCC(N)=O)NC(=O)[C@H](CCCNC(=N)N)NC1=O [UPAR-154, Pent-[Cys-Arg-Gln-Tyr-Phe-Pro-Ser-Ile-Nva-Cys]-NH2] (Pentanoyl-CRQYFPSI[Nva]C-NH2; disulfide 1-10)	≤ 10 nM	< 1.58 nM
CCCCOC(=O)N[C@H]1CSSC[C@@H](C(N)=O)NC(=O)[C@H](CC(C)C)NC(=O)[C@H]([C@@H](C)CC)NC(=O)[C@@H](C)NC(=O)[C@@H]2CCCN2C(=O)[C@H](Cc2ccccc2)NC(=O)[C@H](Cc2ccc(O)cc2)NC(=O)[C@H](CCC(N)=O)NC(=O)[C@H](CCCNC(N)=O)NC1=O [UPAR-155, Butoc-[Cys-Cit-Gln-Tyr-Phe-Pro-ala-Ile-Leu-Cys]-NH2] (Butoxycarbonyl-C[Cit]QYFP[dA]ILC-NH2; disulfide 1-10)	≤ 10 nM	< 1.58 nM
